pIC50: −log10 of the molar value. The source made the active and inactive calls. How the calls were made is not given here.
Columns and labels:
Rattus norvegicus [1] = experiment: Cmax in Sprague-Dawley rat assessed as 5-(3,5-Dichloro-4-hydroxybenzylidene)-3-(4-methoxyphenyl)-2-thioxo-1,3-oxazolidin-4-one concentration at 10 mg/kg, po; format: ADME, organism-based; design: dose 10 mg/kg, route oral; conditions: in vivo
Rattus norvegicus [2] = experiment: Inhibition of LH-RH agonist leuprorelin-induced testosterone steroidogenesis in Sprague-Dawley rat at 100 mg/kg, po administered 1 hr prior leuprorelin-induction measured up to 240 mins by GC/MS analysis relative to CB7630; format: functional
Rattus norvegicus [3] = experiment: Tmax in Sprague-Dawley rat assessed as 5-(3,5-Dichloro-4-hydroxybenzylidene)-3-(4-methoxyphenyl)-2-thioxo-1,3-oxazolidin-4-one concentration at 10 mg/kg, po; format: ADME, organism-based; design: dose 10 mg/kg, route oral; conditions: in vivo
Rattus norvegicus [4] = experiment: Inhibition of LH-RH agonist leuprorelin-induced testosterone steroidogenesis in Sprague-Dawley rat at 100 mg/kg, po administered 1 hr prior leuprorelin-induction measured after 240 mins by GC/MS analysis relative to control; design: scale not given: the % may be the effect or the level left
[5] = target: T1, Estrogen receptor (Homo sapiens) (UniProt P03372); experiment: Agonist activity at human Estrogen receptor ERalpha expressed in human HeLa cells assessed as DHT-induced response after 40 hrs by luciferase/beta-galactosidase-based reporter gene assay; format: functional, cell-based
T1 sequence (whole entry): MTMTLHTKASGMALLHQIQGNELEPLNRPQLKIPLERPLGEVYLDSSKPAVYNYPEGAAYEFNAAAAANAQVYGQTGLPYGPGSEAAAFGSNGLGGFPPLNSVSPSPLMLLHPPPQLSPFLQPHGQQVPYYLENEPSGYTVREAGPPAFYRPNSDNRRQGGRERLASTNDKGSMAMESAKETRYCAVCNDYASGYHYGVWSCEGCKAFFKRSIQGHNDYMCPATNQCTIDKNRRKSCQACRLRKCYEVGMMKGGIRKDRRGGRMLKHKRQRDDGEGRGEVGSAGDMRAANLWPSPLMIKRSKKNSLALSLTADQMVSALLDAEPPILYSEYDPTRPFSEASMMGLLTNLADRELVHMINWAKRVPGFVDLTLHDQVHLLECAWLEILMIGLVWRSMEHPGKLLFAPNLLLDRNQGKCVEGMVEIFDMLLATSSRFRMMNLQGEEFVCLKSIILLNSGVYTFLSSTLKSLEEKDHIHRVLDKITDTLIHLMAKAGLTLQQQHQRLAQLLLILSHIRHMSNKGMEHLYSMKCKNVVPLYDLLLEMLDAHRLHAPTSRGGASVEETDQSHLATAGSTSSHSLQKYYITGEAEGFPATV

Rattus norvegicus [6] = experiment: Oral bioavailability in Sprague-Dawley rat assessed as 5-(3,5-Dichloro-4-hydroxybenzylidene)-3-(4-methoxyphenyl)-2-thioxo-1,3-oxazolidin-4-one concentration at 10 mg/kg; format: ADME, organism-based; conditions: in vivo
Rattus norvegicus [7] = experiment: Inhibition of LH-RH agonist leuprorelin-induced testosterone steroidogenesis in Sprague-Dawley rat drug administered po 1 hr prior leuprorelin-induction measured up to 240 mins by GC/MS analysis; format: functional, organism-based
[8] = target: T2, 17-beta-hydroxysteroid dehydrogenase type 2 (Homo sapiens) (UniProt P37059); experiment: Inhibition of human recombinant 17-beta-HSD2 expressed in human HeLa cells using estradiol as substrate preincubated for 30 mins prior substrate addition measured after 120 mins by spectrophotometry; format: cell-based
T2 sequence (whole entry): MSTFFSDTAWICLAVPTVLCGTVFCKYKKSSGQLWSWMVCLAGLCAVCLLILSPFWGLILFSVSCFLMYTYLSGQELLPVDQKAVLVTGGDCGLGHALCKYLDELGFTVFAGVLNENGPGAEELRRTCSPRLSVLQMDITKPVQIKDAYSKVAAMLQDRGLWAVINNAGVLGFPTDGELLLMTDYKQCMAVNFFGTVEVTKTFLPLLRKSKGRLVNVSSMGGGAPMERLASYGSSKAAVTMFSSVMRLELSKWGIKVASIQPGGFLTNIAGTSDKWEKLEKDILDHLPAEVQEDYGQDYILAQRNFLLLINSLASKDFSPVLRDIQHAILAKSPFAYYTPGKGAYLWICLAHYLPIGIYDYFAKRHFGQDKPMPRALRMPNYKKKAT

Rattus norvegicus [9] = experiment: AUC (0 to 24 hrs) in Sprague-Dawley rat assessed as 5-(3,5-Dichloro-4-hydroxybenzylidene)-3-(4-methoxyphenyl)-2-thioxo-1,3-oxazolidin-4-one concentration at 10 mg/kg, po; format: ADME, organism-based, Plasma; design: time < 24 hr, dose 10 mg/kg, route oral; conditions: in vivo
[10] = Cmax in Sprague-Dawley rat at 10 mg/kg, po; format: ADME, organism-based; design: dose 10 mg/kg, route oral; conditions: in vivo
[11] = AUC (0 to 24 hrs) in Sprague-Dawley rat at 10 mg/kg, po; format: ADME, organism-based; design: time < 24 hr, dose 10 mg/kg, route oral; conditions: plasma
[12] = Tmax in Sprague-Dawley rat at 10 mg/kg, po; format: ADME, organism-based; design: dose 10 mg/kg, route oral; conditions: in vivo
[13] = Oral bioavailability in Sprague-Dawley rat at 10 mg/kg; format: ADME, organism-based; conditions: in vivo
[14] = target: T3, 17-beta-hydroxysteroid dehydrogenase type 3 (Homo sapiens, UniProt P37058)
T3 sequence (P37058 whole entry): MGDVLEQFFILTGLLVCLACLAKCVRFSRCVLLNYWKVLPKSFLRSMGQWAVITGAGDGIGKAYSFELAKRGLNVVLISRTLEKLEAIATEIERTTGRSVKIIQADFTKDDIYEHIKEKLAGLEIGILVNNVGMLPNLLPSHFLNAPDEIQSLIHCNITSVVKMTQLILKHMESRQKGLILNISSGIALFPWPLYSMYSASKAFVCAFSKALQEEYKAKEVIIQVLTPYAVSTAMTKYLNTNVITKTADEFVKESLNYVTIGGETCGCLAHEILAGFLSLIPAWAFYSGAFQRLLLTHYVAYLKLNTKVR
Description: Inhibition of human recombinant 17-beta-HSD3 expressed in human HeLa cells using androstenedione as substrate preincubated for 30 mins prior substrate addition measured after 120 mins by spectrophotometry

Row | SMILES | Cmax (Rattus norvegicus [1]) | fold change (FC) (Rattus norvegicus [2]) | Tmax (Rattus norvegicus [3]) | Activity (Rattus norvegicus [4]) | Activity [5] | F (Rattus norvegicus [6]) | inhibition (Rattus norvegicus [7]) | inhibition [8] | AUC (Rattus norvegicus [9]) | Cmax [10] | AUC(0-t) at 24 h [11] | Tmax [12] | bioavailability [13] | pIC50 [14]
1 | COc1ccc(N2C(=O)/C(=C/c3cc(Cl)c(OP(=O)(O)O)c(Cl)c3)OC2=S)cc1 | 5.25 µg/mL | 2 | 1 h | 10% | inactive | 35.1% | Dose-dependent effect | inactive | 18.8 µg·h/mL |  |  |  |  | 
2 | COc1ccc(N2C(=O)/C(=C/c3cc(Cl)c(O)c(Cl)c3)OC2=S)cc1 |  |  |  |  | inactive |  |  | inactive |  | 400 ng/mL | 4000 ng·h/mL | 1 h | 5.5% | 7.92

— ChEMBL document CHEMBL2016457, “Discovery of potent and orally bioavailable 17β-hydroxysteroid dehydrogenase type 3 inhibitors” (Bioorg Med Chem, 2012)
